Assay results taken from US8975246B2, “Bile acid or bile salt fatty acid conjugates” (Galmed Research and Development Ltd., priority 2001, dated 2015).

System: Inbred C57J/L mice
Assay: Liver lipid/protein ratio, mice on high fat lithogenic diet
Format: in vivo
Details: BAFAC 150 mg/Kg daily by gavage, 5 weeks
Description: Inbred C57J/L mice, 4 weeks old and weighing approx. 20 gm (Jackson Lab. Maine, USA) were used. They were fed for 5 weeks a high fat lithogenic diet consisting of: Cholesterol 1%, Cholic Acid 0.5%, lard 10%, butter 6%, palmitic acid 1.2% and corn oil 2% added (w/w) to their regular diet. In addition to the diet the animals were given daily, by gavage, either a BAFAC (150 mg/Kg) suspended in saline or an equal volume of saline only. The BAFACs were conjugates of cholic acid (at position 3) with either Palmitic Acid (C-16) or Arachidic Acid (C-20) or Behenic Acid (C-22) using an amide bond. The controls (n=5) received saline, the test animals received either the C-16 conjugate (n=5), the C-20 conjugate (n=5) or the C-22 conjugate (n=3). After 5 weeks, following an overnight fast, the animals were anesthetized using ketamine, the liver was removed, and the animals were sacrificed by ketamine overdose. A 0.5 gm sample of liver was homogenized in 5 ml of buffered saline. Liver lipids were extracted from the homogenate by the Folch method using chloroform:methanol (2:1, vol/vol). Half a ml of the homogenate were extracted in 5 ml of the Folch solution. After evaporation of the solvent the lipids were weighed and reevaporated several times until constant weight was obtained. The proteins were quantified in another aliquot of the homogenate according to the method of Bradford. (Bradford M. M., Annal Biochem. 1976, 72:248).
The lipid protein ratio (mg/mg) was calculated. The results for each group are given as means (+St. Dev.) The group values were: […]

Row | Compound | lipid protein ratio in liver, mean (+St. Dev.) [mg/mg]
1 | CCCCCCCCCCCCCCCC(=O)NC1CCC2(C)C(C1)CC(O)C1C2CC(O)C2(C)C(C(C)CCC(=O)O)CCC12 (centres unmarked) [C-16 BAFAC] | 2.25 ± 1.20
2 | CCCCCCCCCCCCCCCCCCCCCC(=O)NC1CCC2(C)C(C1)CC(O)C1C2CC(O)C2(C)C(C(C)CCC(=O)O)CCC12 (centres unmarked) [C-22 BAFAC] | 3.00 ± 1.08
